Like-named read-outs stand apart in the source and are kept apart here.
Columns and labels:
[1] = biological target: T1, recombinant human Caspase-1 (Homo sapiens, UniProt P29466); test: Caspase-1 inhibitory activity, fluorescent substrate Ac-YVAD-AFC; assay type: biochemical
T1 construct: purchased Enzo life science
T1 sequence (P29466 120-297 limits assumed): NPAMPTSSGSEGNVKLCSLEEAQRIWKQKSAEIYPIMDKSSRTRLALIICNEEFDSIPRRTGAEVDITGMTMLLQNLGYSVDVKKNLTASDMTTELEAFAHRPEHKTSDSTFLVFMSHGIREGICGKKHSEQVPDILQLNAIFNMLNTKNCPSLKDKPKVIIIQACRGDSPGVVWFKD
T1 sequence (P29466 317-404 limits assumed): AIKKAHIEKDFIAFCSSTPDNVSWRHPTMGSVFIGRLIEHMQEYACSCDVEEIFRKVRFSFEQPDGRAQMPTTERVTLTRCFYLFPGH
Procedure: To determine the Caspase-1 inhibitory activity of the compounds of the present invention prepared in Example, Caspase-1 activity was measured using a substrate with a fluorescent dye attached to it. […] The compound was dissolved in DMSO and stored at −20° C. Enzymatic reactions were carried out in a buffer comprising 50 mM HEPES (pH 8.0), 50 mM KCl, 200 mM NaCl, 10 mM DTT, 0.1% CHAPS (w/v). Enzyme inactivation was measured in the presence of different concentrations of the compound using the fluorescent substrate N-Acetyl-Tyr-Val-Ala-Asp-7-amido-4-trifluoromethylcoumarin (Ac-YVAD-AFC) (Sigma) at a concentration of 50 μM and 1 unit of recombinant human Caspase-1 (Enzo life science). A CLARIOstar Plus spectrometer (BMG Labtech) was used to measure the reaction rate as a function of time in the 400/505 nm (Ex/Em) wavelength band. […] If kobs/[I] is 20 or more, it is denoted as A, if it is 10 or more but less than 20, it is denoted as B, if it is 1 or more but less than 10, it is denoted as C, and if it is less than 1, it is denoted as D.
In the above equation, At means the enzyme reaction rate at time t (min), and Amax means the maximum reaction rate.

Jurkat cells = test: Apoptosis inhibition activity in human T-lymphocyte cells Jurkat (anti-FAS antibody, intracellular ATP); assay type: cell-based; conditions: compound 50 nM, 1 μg/ml anti-FAS antibody 24 h, ATP luminescence
Procedure: To evaluate the effect of the compound of the present invention on apoptosis, Jurkat (ATCC) cells were treated with anti-FAS antibody CH-11 (Merck) to induce apoptosis via the Fas (CD95) receptor, which was assessed by the amount of intracellular ATP.
Jurkat cells were cultured in RPMI 1640 growth medium comprising 10% FBS and antibiotics (100 U/ml Penicillin, 0.1 mg/ml Streptomycin) under 37° C., 5% CO2 conditions. Cultured cells were seeded in growth medium to a concentration of 8×10^4 cells/well in 96-well plates (SPL), pretreated with compound at a concentration of 50 nM for 1 hour, and then treated with 1 μg/ml anti-FAS antibody for 24 hours in an incubator. After 24 h, an ATP lite Luminescence assay kit (PerkinElmer) was used to measure ATP and luminescence was measured at 580 nm using a CLARIOstar Plus spectrometer. If the inhibitory activity is 30% or more, it is denoted as a′, if it is 20% or more but less than 30%, it is denoted as b′, if it is 10% or more but less than 20%, it is denoted as c′, and if it is less than 10%, it is denoted as d′.

[2] = tested on: Secreted IL-1β in THP-1 cells; test: Interleukin-1β inhibitory activity in human monocytic cells THP-1 (ELISA); assay type: cell-based; conditions: compound 100 nM, PMA-differentiated THP-1, LPS 10 μg/ml then 5 mM ATP, 24 h
Procedure: Caspase-1 is known as […] (ICE). Activated Caspase-1 is involved in the cleavage of pro-form IL-1β to produce the mature form, which is then secreted to induce inflammation. Therefore, the compounds identified in Experimental example 1 were tested to determine if their Caspase-1 inhibitory activity affected the production of […].
THP-1 (ATCC) cells were cultured in RPMI 1640 (Hyclone) growth medium comprising 10% Fetal bovine serum (FBS, Gibco) and antibiotics (100 U/ml Penicillin, 0.1 mg/ml Streptomycin, Cytiva) under 37° C., 5% CO2 conditions. Cultured THP-1 cells were seeded in growth medium to a concentration of 3×10^5 cells/well in 24-well plates (Celvest) and then treated with 1 μM Phorbol 12-myristate 13-acetate (PMA) (Sigma) for 24 hours to induce differentiation. Differentiated THP-1 were pre treated with 10 μg/ml Lipopolysaccharide (LPS, from E. coli 0111:B4 (InvivoGen)) in serum free RPMI 1640 medium for 24 hours to induce an inflammatory response. After removal of LPS, the compounds were pretreated for 1 h at a concentration of 100 nM using the same medium, followed by the addition of 5 mM ATP (InvivoGen) and incubation for 24 h in an incubator. The treated medium was collected and centrifuged, and IL-1β was quantified using an Enzyme linked immunoassay kit (ELISA kit, R&D system), and absorbance was measured at 450 nm using a CLARIOstar Plus spectrometer. Inhibitory activity was denoted as a if it was 50% or more, b if it was 30% or more but less than 50%, c if it was 10% or more but less than 30%, and d if it was less than 10%.

[3] = pH 8, 1 unit recombinant human Caspase-1, 50 μM Ac-YVAD-AFC, read-out: kobs/[I] Caspase-1
[4] = pH 8, read-out: kobs/[I] Caspase-1

Structure (SMILES)	kinact/KI [1, 3] [M⁻¹ s⁻¹]	inhibition at 0.05 µM (Jurkat cells) [%]	inhibition at 0.1 µM [2] [%]	kinact/KI [1, 4] [M⁻¹ s⁻¹]
CCC(C(=O)NC(CC(=O)O)C(=O)CF)N1Cc2ccc(-c3cn[nH]c3)cc2C1=O (stereo not drawn) [Compound 5, 5-fluoro-4-oxo-3-(2-(1-oxo-6-(1H-pyrazol-4-yl)isoindolin-2-yl)butanamido)pentanoic acid]	0.0167 to 0.167	10 to 20	30 to 50	
CC(C)[C@@H](C(=O)NC(CC(=O)O)C(=O)CF)N1Cc2ccc(-c3ccc4c(c3)OCCO4)cc2C1=O (stereo partly drawn) [Compound 42, 3-((S)-2-(6-(2,3-dihydrobenzo[b][1,4]dioxin-6-yl)-1-oxoisoindolin-2-yl)-3-methylbutanamido)-5-fluoro-4-oxopentanoic acid]	0.0167 to 0.167	≥ 30	30 to 50	
CCC(C(=O)NC(CC(=O)O)C(=O)CF)N1Cc2ccc(N3CCN(S(C)(=O)=O)CC3)cc2C1=O (stereo not drawn) [Compound 6, 5-fluoro-3-(2-(6-(4-(methylsulfonyl)piperazin-1-yl)-1-oxoisoindolin-2-yl)butanamido)-4-oxopentanoic acid]	< 0.0167	10 to 20	10 to 30	
O=C(O)CC(NC(=O)CN1Cc2ccc(-c3csc4ccccc34)cc2C1=O)C(=O)CF (stereo not drawn) [Compound 40, 3-(2-(6-(benzo[b]thiophen-3-yl)-1-oxoisoindolin-2-yl)acetamido)-5-fluoro-4-oxopentanoic acid]		< 10	< 10	0.0167 to 0.167
CCC(C(=O)NC(CC(=O)O)C(=O)CF)N1Cc2ccc(Br)cc2C1=O (stereo not drawn) [Compound 9, 3-(2-(6-bromo-1-oxoisoindolin-2-yl)butanamido)-5-fluoro-4-oxopentanoic acid]	0.0167 to 0.167	≥ 30	30 to 50	
CC[C@@H](C(=O)N[C@H](CC(=O)O)C(=O)COc1c(F)c(F)cc(F)c1F)N1Cc2ccc(-c3ccc4c(c3)OCCO4)cc2C1=O [Compound 54, (R)-3-((S)-2-(6-(2,3-dihydrobenzo[b][1,4]dioxin-6-yl)-1-oxoisoindolin-2-yl)butanamido)-4-oxo-5-(2,3,5,6-tetrafluorophenoxy)pentanoic acid]	0.0167 to 0.167	< 10	30 to 50	
CCC(C(=O)NC(CC(=O)O)C(=O)CF)N1Cc2ccc(-c3csc4ccccc34)cc2C1=O (stereo not drawn) [Compound 16, 3-(2-(6-(benzo[b]thiophen-3-yl)-1-oxoisoindolin-2-yl)butanamido)-5-fluoro-4-oxopentanoic acid]		20 to 30	≥ 50	> 0.333
CC(C)[C@@H](C(=O)NC(CC(=O)O)C(=O)CF)N1Cc2ccc(-c3coc4ccccc34)cc2C1=O (stereo partly drawn) [Compound 44, 3-((S)-2-(6-(benzofuran-3-yl)-1-oxoisoindolin-2-yl)-3-methylbutanamido)-5-fluoro-4-oxopentanoic acid]	0.167 to 0.333	20 to 30	≥ 50	
CCC(C(=O)NC(CC(=O)O)C(=O)CF)N1Cc2ccc(-c3ccc4[nH]c(=O)[nH]c4c3)cc2C1=O (stereo not drawn) [Compound 8, 5-fluoro-4-oxo-3-(2-(1-oxo-6-(2-oxo-2,3-dihydro-1H-benzo[d]imidazol-5-yl)isoindolin-2-yl)butanamido)pentanoic acid]	0.0167 to 0.167	10 to 20	≥ 50	
CC[C@@H](C(=O)NC(CC(=O)O)C(=O)CF)N1Cc2ccc(-c3ccc4c(c3)OCCO4)cc2C1=O (stereo partly drawn) [Compound 55, 3-((S)-2-(6-(2,3-dihydrobenzo[b][1,4]dioxin-6-yl)-1-oxoisoindolin-2-yl)butanamido)-5-fluoro-4-oxopentanoic acid]	0.0167 to 0.167	≥ 30	30 to 50	
CCC(C(=O)NC(CC(=O)O)C(=O)CF)N1Cc2ccc(N3CCCC3)cc2C1=O (stereo not drawn) [Compound 3, 5-fluoro-4-oxo-3-(2-(1-oxo-6-(pyrrolidin-1-yl)isoindolin-2-yl)butanamido)pentanoic acid]	0.0167 to 0.167	20 to 30	30 to 50	
CCC(C(=O)NC(CC(=O)O)C(=O)CF)N1Cc2ccc(-c3ccccc3)cc2C1=O (stereo not drawn) [Compound 1, 5-fluoro-4-oxo-3-(2-(1-oxo-6-phenylisoindolin-2-yl)butanamido)pentanoic acid]	0.0167 to 0.167	20 to 30	10 to 30	
CC[C@@H](C(=O)NC(CC(=O)O)C(=O)CF)N1Cc2ccc(-c3ccc4[nH]c(=O)[nH]c4c3)cc2C1=O (stereo partly drawn) [Compound 56, 5-fluoro-4-oxo-3-((S)-2-(1-oxo-6-(2-oxo-2,3-dihydro-1H-benzo[d]imidazol-5-yl)isoindolin-2-yl)butanamido)pentanoic acid]	0.167 to 0.333	< 10	≥ 50	
CCC(C(=O)NC(CC(=O)O)C(=O)CF)N1Cc2ccc(-c3ccc4occc4c3)cc2C1=O (stereo not drawn) [Compound 26, 3-(2-(6-(benzofuran-5-yl)-1-oxoisoindolin-2-yl)butanamido)-5-fluoro-4-oxopentanoic acid]	0.0167 to 0.167	≥ 30	30 to 50	
CCC(C(=O)NC(CC(=O)O)C(=O)CF)N1Cc2ccc(-c3coc4ccccc34)cc2C1=O (stereo not drawn) [Compound 22, 3-(2-(6-(benzofuran-3-yl)-1-oxoisoindolin-2-yl)butanamido)-5-fluoro-4-oxopentanoic acid]	> 0.333	10 to 20	30 to 50	
CCC(C(=O)NC(CC(=O)O)C(=O)CF)N1Cc2ccc(-c3cncc4ccccc34)cc2C1=O (stereo not drawn) [Compound 29, 5-fluoro-3-(2-(6-(isoquinolin-4-yl)-1-oxoisoindolin-2-yl)butanamido)-4-oxopentanoic acid]	0.0167 to 0.167	< 10	< 10	
CC[C@@H](C(=O)N[C@@H](CC(=O)O)C(=O)COc1c(F)c(F)cc(F)c1F)N1Cc2ccc(-c3coc4ccccc34)cc2C1=O [Compound 50, (S)-3-((S)-2-(6-(benzofuran-3-yl)-1-oxoisoindolin-2-yl)butanamido)-4-oxo-5-(2,3,5,6-tetrafluorophenoxy)pentanoic acid]	0.167 to 0.333	≥ 30	≥ 50	
CCC(C(=O)NC(CC(=O)O)C(=O)CF)N1Cc2ccc(-c3ccc(OC)nc3)cc2C1=O (stereo not drawn) [Compound 13, 5-fluoro-3-(2-(6-(6-methoxypyridin-3-yl)-1-oxoisoindolin-2-yl)butanamido)-4-oxopentanoic acid]	0.0167 to 0.167	20 to 30	≥ 50	

Reference: patent US20250109135A1, “NOVEL ISOINDOLINONE DERIVATIVE COMPOUNDS AS CASPASE INHIBITORS” (INNOVO THERAPEUTICS INC., priority 2022, published 2025)
